Reference: patent publication US4556660A, “N-(Bicyclic heterocyclyl)-4-piperidinamines” (Janssen Pharmaceutica N.V., priority 1983, dated 1985)
Read-outs that look alike come from different tables or passages of the source.

Experiments:
[1] = tested on: compound 48/80-induced cyanosis, lesions in the glandular area of the stomach and abnormal gastric distension; conditions: rats injected with compound 48/80; cited from earlier work
[2] = tested on: compound 48/80-induced lethality; assay: Protection of rats from compound 48/80-induced lethality; format: in vivo, Male rats of an inbred Wistar strain; conditions: for ED50: Rattus norvegicus, 4 h, read-out: compound 48/80 lethality test rats-ED50
Description: Protection of rats from compound 48/80-induced lethality
The protection from compound 48/80-induced lethal circulatory collapse appears to be a simple way of evaluating quantitatively the antihistaminic activity of test compounds. Male rats of an inbred Wistar strain, weighing 240-260 g were used in the experiment. After overnight starvation the rats were transferred to conditioned laboratories (temp.=21±1° C., relative humidity-65±5%).
The rats were treated subcutaneously or orally with a test compound or with the solvent (NaCl solution, 0.9%). […] Survival after 4 hours is therefore considered to be a safe criterion of a protective effect of drug administration.
The ED50 -values of the compounds of formula (I) and the intermediates of formula (XVIII) are listed in the first column of table 1 and table 2. Said ED50 -values are the values in mg/kg body weight at which the tested compounds protect 50% of the tested animals against compound 48/80-induced lethality.

[3] = tested on: serotonin; compound 48/80-induced gastric lesions; assay: Antagonistic activity on the effects of serotonin in the gastric lesion test (lesions induced by compound 48/80); format: in vivo, Male rats of a Wistar inbred strain
Description: Antagonistic activity on the effects of serotonin in the gastric lesion test
Male rats of a Wistar inbred strain, weighing 220-250 g, were starved overnight, water being available ad libitum. The test compounds were administered orally as a solution or as a suspension in aqueous medium. A control rat and a "blank" rat received the test compound. One hour later 5-[4-(diphenylmethyl)-1-piperazinylmethyl]-1-methyl-1H-benzimidazole-2-methanol was administered subcutaneously to all rats at the dose of 2.5 mg/kg.
Four hours after the intravenous injection of compound 48/80, the rats were decapitated and the stomachs were removed. Subsequently the stomachs were inspected for distension and contents (blood, fluid, food) and thoroughly rinsed. The macroscopic lesions were scored from 0 to +++, 0 corresponding to complete absence of visible lesions and the highest score corresponding to reddish rough patches covering more than half the glandular area.

[4] = Rattus norvegicus, po; read-out: gastric lesion test ED50
[5] = Rattus norvegicus, po, read-out: gastric lesion test ED50

Row | Molecule | ED50 [2] | ED50 [3, 4] | further results
1 | CC[C@@H](CO)NC(=O)[C@@H]1C=C2c3cccc4c3c(cn4C)C[C@H]2N(C)C1 [methysergide] | – | – | prevention of cyanosis of ears and extremities, lesions in the glandular area of the stomach and abnormal gastric distension [1]: prevent completely
2 | CN(C)CCCSc1ccccc1NC(=O)/C=C/c1ccccc1 [cinanserin] | – | – | prevention of cyanosis of ears and extremities, lesions in the glandular area of the stomach and abnormal gastric distension [1]: prevent completely
3 | CN1CCC(=C2c3ccccc3CCc3sccc32)CC1 [pizotifen] | – | – | prevention of cyanosis of ears and extremities, lesions in the glandular area of the stomach and abnormal gastric distension [1]: prevent completely
4 | CN1CCN2c3ccccc3Cc3ccccc3C2C1 (stereo not drawn) [mianserin] | – | – | prevention of cyanosis of ears and extremities, lesions in the glandular area of the stomach and abnormal gastric distension [1]: prevent completely
5 | O=C(CCCN1CCC2(CC1)C(=O)NCN2c1ccccc1)c1ccc(F)cc1 [spiperone] | – | – | prevention of cyanosis of ears and extremities, lesions in the glandular area of the stomach and abnormal gastric distension [1]: prevent completely
6 | Fc1ccc(Cn2c(NC3CCN(CCSc4ncccn4)CC3)nc3ccccc32)cc1 [Compound 91, 1-[(4-fluorophenyl)methyl]-N-[1-[2-(2-pyrimidinylthio)ethyl]-4-piperidinyl]-1H-benzimidazol-2-amine] | 0.16 mg/kg | 0.16 mg/kg | –
7 | Fc1ccc(Cn2c(NC3CCN(CCNc4ccc(Cl)nn4)CC3)nc3ccccc32)cc1 [Compound 37] | 0.08 mg/kg | 1.25 mg/kg | –
8 | Nc1cc(NCCN2CCC(Nc3nc4ccccc4n3Cc3ccc(F)cc3)CC2)nc(N)n1 [Compound 34] | 0.08 mg/kg | 0.16 mg/kg | –
9 | CN1C[C@H](CNC(=O)OCc2ccccc2)C[C@@H]2c3cccc4c3c(cn4C)C[C@H]21 [metergoline] | – | – | prevention of cyanosis of ears and extremities, lesions in the glandular area of the stomach and abnormal gastric distension [1]: prevent completely
10 | NC(=O)c1cccnc1NCCN1CCC(Nc2nc3ccccc3n2Cc2ccco2)CC1 [Compound 46] | 0.04 mg/kg | 0.63 mg/kg | –
11 | Cc1ccc(Cn2c(NC3CCN(CCNc4ncccn4)CC3)nc3ccccc32)o1 [Compound 21] | 0.04 mg/kg | 0.63 mg/kg | –
12 | Fc1ccc(Cn2c(NC3CCN(CCOCc4ccccn4)CC3)nc3ccccc32)cc1.O=C(O)/C=C/C(=O)O.O=C(O)/C=C/C(=O)O [Compound 84, 1-[(4-fluorophenyl)methyl]-N-[1-[2-(2-pyridinylmethoxy)ethyl]-4-piperidinyl]-1H-benzimidazol-2-amine (E)-2-butenedioate (1:2)] | 0.08 mg/kg | 2.5 mg/kg | –
13 | NC(=O)c1ccc(NCCN2CCC(Nc3nc4ccccc4n3Cc3ccc(F)cc3)CC2)nc1 [Compound 42] | 0.04 mg/kg | – | ED50 [3, 5]: 0.08 mg/kg
14 | NC(=O)C1(N2CCCCC2)CCN(CCCC(=O)c2ccc(F)cc2)CC1 [pipamperone] | – | – | prevention of cyanosis of ears and extremities, lesions in the glandular area of the stomach and abnormal gastric distension [1]: prevent completely
15 | O.O=c1nc(NCCN2CCC(Nc3nc4ccccc4n3Cc3ccc(F)cc3)CC2)[nH]cc1Cc1ccc(Cl)cc1 [Compound 85, 5-[(4-chlorophenyl)methyl]-2-[[2-[4-[[1-[(4-fluorophenyl)methyl]-1H-benzimidazol-2-yl]amino]-1-piperidinyl]ethyl]amino]-4(1H)-pyrimidinone monohydrate] | 1.25 mg/kg | 2.5 mg/kg | –
16 | O.O=c1nc(SCCN2CCC(Nc3nc4ccccc4n3Cc3ccc(F)cc3)CC2)[nH]c2ccccc12 [Compound 92, 2-[2-[4-[[1-[(4-fluorophenyl)methyl]-1H-benzimidazol-2-yl]amino]-1-piperidinyl]ethylthio]-4(1H)-quinazolinone monohydrate] | 0.31 mg/kg | 2.5 mg/kg | –
17 | CN(CCN1CCC(Nc2nc3ccccc3n2Cc2ccc(F)cc2)CC1)c1ccc(Cl)cn1 [Compound 56] | 0.31 mg/kg | 1.25 mg/kg | –
18 | Fc1ccc(Cn2c(NC3CCN(CCOc4ncccn4)CC3)nc3ccccc32)cc1 [Compound 81, 1-[(4-fluorophenyl)methyl]-N-[1-[2-(2-pyrimidinyloxy)ethyl]-4-piperidinyl]-1H-benzimidazol-2-amine] | 0.16 mg/kg | 0.63 mg/kg | –
19 | O=C(c1ccccc1)N(CCN1CCC(Nc2nc3ccccc3n2Cc2ccc(F)cc2)CC1)c1ncccn1 [Compound 100, N-[2-[4-[[1-fluorophenyl)methyl]-1H-benzimidazol-2-yl]amino]-1-piperidinyl]ethyl]-N-(2-pyrimidinyl)benzamide (E)-2-butenedioate (1:2)] | 0.08 mg/kg | 0.63 mg/kg | –
20 | NC(=O)c1cccnc1NCCN1CCC(Nc2nc3ccccc3n2Cc2ccc(F)cc2)CC1 [Compound 36] | 0.08 mg/kg | 0.16 mg/kg | –
21 | CN1CCC(=C2c3ccccc3C=Cc3ccccc32)CC1 [cyproheptadine] | – | – | prevention of cyanosis of ears and extremities, lesions in the glandular area of the stomach and abnormal gastric distension [1]: prevent completely
22 | Fc1ccc(Cn2c(NC3CCN(CCNc4ccc(Br)cn4)CC3)nc3ccccc32)cc1 [Compound 39] | 0.31 mg/kg | 2.5 mg/kg | –
23 | O=C(NCCN1CCC(Nc2nc3ccccc3n2Cc2ccc(F)cc2)CC1)c1ccc(Cl)nc1.O=C(O)/C=C/C(=O)O.O=C(O)/C=C/C(=O)O [Compound 116, 6-chloro-N-[2-[4-[[1-[(4-fluorophenyl)methyl]-1H-benzimidazol-2-yl]amino]-1-piperidinyl]ethyl]-3-pyridinecarboxamide (E)-2-butenedioate (1:2)] | 0.31 mg/kg | 2.5 mg/kg | –
24 | c1cnc(NCCN2CCC(Nc3nc4ccccc4n3Cc3ccco3)CC2)nc1 [Compound 43] | 0.16 mg/kg | – | ED50 [3, 5]: 0.04 mg/kg
25 | 3[(4-fluorophenyl)methyl]-N-[1-[2-[(2-pyridinyl)amino]ethyl]-4-piperidinyl]-3H-imidazo[4,5-b]pyridin-2-amine [Compound 23] | – | – | compound 48/80 lethality test rats-ED50 ([2]; rats, subcutaneous or oral, 1 h before compound 48/80 0.5 mg/kg i.v., 50% protected, survival after 4 h): 0.04 mg/kg body weight; gastric lesion test ED50 ([3]; rats, oral, 2 h before compound 48/80 1 mg/kg i.v.; stomach distension and glandular lesions completely absent in 50% of rats): 0.08 mg/kg body weight
26 | Fc1ccc(Cn2c(NC3CCN(CCNc4ncccn4)CC3)nc3ccccc32)cc1 [Compound 1, 1-[(4-fluorophenyl)methyl]-N-[1-[2-[(2-pyrimidinyl)amino]ethyl]-4-piperidinyl]-1H-benzimidazol-2-amine] | 0.16 mg/kg | 0.63 mg/kg | –
27 | Cl.Cl.Fc1ccc(Cn2c(NC3CCN(CCNc4ccnc(Cl)n4)CC3)nc3ccccc32)cc1.O [Compound 60, N-[1-[2-[(2-chloro-4-pyrimidinyl)amino]ethyl]-4-piperidinyl]-1-[(4-fluorophenyl)methyl]1H-benzimidazol-2-amine dihydrochloride monohydrate] | 0.31 mg/kg | 2.5 mg/kg | –
28 | Fc1ccc(Cn2c(NC3CCN(CCNC(=S)Nc4ccccn4)CC3)nc3ccccc32)cc1 [Compound 105, N-[2-[4-[[1-[(4-fluorophenyl)methyl]-1H-benzimidazol-2-yl]amino]-1-piperidinyl]ethyl]-N'-(2-pyridinyl)thiourea] | 0.63 mg/kg | 0.63 mg/kg | –
